According to patent US20240307561A1, “RA[…] INHIBITOR CONJUGATES FOR CANCER TREATMENT” (DUKE UNIVERSITY, priority 2021, published 2024):
Read-outs that look alike come from different tables or passages of the source.

Legend:
[1] = test system: PIP cells; settings: cited from earlier work
[2] = target: PARP-1 (Homo sapiens, UniProt P09874); settings: release of PARP-1 from DNA; cited from earlier work
[3] = test system: PSMA^+ PIP cells; test: PSMA-specific uptake and internalization in PIP cells; type: cell-based; settings: for Total cell-associated activity (percentage of input dose): 37° C., 5×10^5 PIP cells
Description: PSMA-specific uptake and internalization of [^131I]PARP-PSMA combo agent 13 was determined by incubation with 5×10^5 PIP cells in triplicate in the absence or presence of 200 μM 2-PMPA at 37° C. for 0.25-2 h. After removing the unbound activity-containing medium, the cells were washed with 50 mM glycine, pH 2.8 and finally, cells were lysed with 1M NaOH. Radioactivity in the supernatants, glycine wash (membrane-bound) and lysate (internalized) fractions was counted and percentage of input dose calculated. […] Total cell-associated activity was 18.7±1.0%, 30.0±0.9%, 31.8±1.0 and 37.9±0.6% at 15, 30, 60, and 120 min, respectively.

[4] = test system: PSMA^+ PIP cells; test: Subcellular fractionation in PSMA+ PIP cells; type: cell-based; settings: 1 h
Description: Subcellular fractionation of [^131I]PARP-PSMA combo agent 13 in PSMA+ PIP cells was determined using The Subcellular Protein Fractionation Kit for Cultured Cells (Number 78840) purchased from Thermo Scientific. PIP Cells (5 million) were incubated with […] of [^131I] 13 in 1.5 ml tubes with a final incubation volume of 500 μL. Stepwise separation and preparation of cytoplasmic, membrane, nuclear soluble, chromatin-bound and cytoskeletal protein extracts from PSMA^+ PIP cells were achieved by following the protocol provided by Thermo Scientific. The following groups of experiments were performed: • 1. ([^131I]PARP-PSMA combo agent 13. • 2. ([^131I]PARP-PSMA combo agent 13+2-PMPA blocking agent (680 μM) • 3. ([^131I]PARP-PSMA combo agent 13+Olaparib blocking agent (6.8 mM) • 4. ([^131I]PARP-PSMA combo agent 13+2-PMPA blocking agent (6.8 mM)+Olaparib blocking agent (6.8 mM)

[5] = + 2-PMPA (6.8 mM) + Olaparib (6.8 mM) blocking agents
[6] = + 2-PMPA blocking agent (680 μM)
[7] = + Olaparib blocking agent (6.8 mM)

PARP-1, sequence (P09874 whole entry): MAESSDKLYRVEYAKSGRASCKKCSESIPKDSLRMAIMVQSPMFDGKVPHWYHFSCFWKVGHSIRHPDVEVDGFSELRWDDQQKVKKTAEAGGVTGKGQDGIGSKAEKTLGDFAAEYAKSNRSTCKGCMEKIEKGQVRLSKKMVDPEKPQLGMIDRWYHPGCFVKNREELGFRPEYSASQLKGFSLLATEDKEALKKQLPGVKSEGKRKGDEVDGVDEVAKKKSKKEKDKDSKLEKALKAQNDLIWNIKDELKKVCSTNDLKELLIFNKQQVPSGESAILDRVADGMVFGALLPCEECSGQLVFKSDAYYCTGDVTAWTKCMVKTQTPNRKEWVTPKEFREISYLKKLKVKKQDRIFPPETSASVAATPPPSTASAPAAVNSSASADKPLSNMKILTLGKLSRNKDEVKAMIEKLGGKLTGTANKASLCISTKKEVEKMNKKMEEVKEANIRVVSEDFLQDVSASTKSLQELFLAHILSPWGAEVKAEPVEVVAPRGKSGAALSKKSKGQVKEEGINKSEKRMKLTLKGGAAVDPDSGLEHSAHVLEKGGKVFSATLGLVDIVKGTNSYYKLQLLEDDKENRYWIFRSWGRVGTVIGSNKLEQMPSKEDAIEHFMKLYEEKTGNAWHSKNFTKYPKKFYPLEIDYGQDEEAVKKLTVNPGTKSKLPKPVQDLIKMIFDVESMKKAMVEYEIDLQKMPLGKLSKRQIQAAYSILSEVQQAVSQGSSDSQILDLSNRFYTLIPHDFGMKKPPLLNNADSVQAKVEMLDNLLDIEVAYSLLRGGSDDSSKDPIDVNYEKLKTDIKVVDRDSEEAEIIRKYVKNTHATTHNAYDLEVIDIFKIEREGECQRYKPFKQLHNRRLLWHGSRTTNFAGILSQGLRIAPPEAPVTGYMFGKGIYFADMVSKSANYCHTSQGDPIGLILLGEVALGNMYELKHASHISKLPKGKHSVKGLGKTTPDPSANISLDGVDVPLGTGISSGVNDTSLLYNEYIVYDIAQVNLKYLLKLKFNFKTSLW

O=C(O)CC[C@H](NC(=O)N[C@@H](CCCCNC(=O)c1ccc([131I])cc1)C(=O)O)C(=O)O [[^131I]DCIBzL]
Total cell-associated activity ([1]; 30 min): 5.0±0.3%
Total cell-associated activity ([1]; 60 min): 9.3±1.5%
Total cell-associated activity ([1]; 120 min): 16.8±1.0%

COC(=O)c1cnc(N2CCN(C(=O)c3ccc(-c4nc5c(C(N)=O)cccc5[nH]4)cc3)CC2)nc1 [UKTT15]
dissociation rate constant (kd) [2]: 0.00185 s⁻¹

O=C(O)CC[C@H](NC(=O)N[C@@H](CCCCNC(=O)CCOCCOCCOCCNC(=O)c1cc([131I])cc(C(=O)N2CCN(C(=O)c3cc(Cc4n[nH]c(=O)c5ccccc45)ccc3F)CC2)c1)C(=O)O)C(=O)O [[^131I]PARP-PSMA combo agent 13, (20S,24S)-1-(3-(4-(2-fluoro-5-((4-oxo-3,4-dihydrophthalazin-1-yl)methyl)benzoyl)piperazine-1-carbonyl)-5-[^131I]iodophenyl)-1,14,22-trioxo-5,8,11-trioxa-2,15,21,23-tetraazahexacosane-20,24,26-tricarboxylic Acid]
Total cell-associated activity (percentage of input dose) ([3]; 15 min): 18.7±1.0%
Total cell-associated activity (percentage of input dose) ([3]; 30 min): 30.0±0.9%
Total cell-associated activity (percentage of input dose) ([3]; 60 min): 31.8±1.0%
Total cell-associated activity (percentage of input dose) ([3]; 120 min): 37.9±0.6%
Uptake blocked by 2-PMPA ([3]; presence of 200 μM 2-PMPA): > 80%
Cells Left Over [4, 5]: 0.02%
Cytoplasmic [4, 5]: 2.13%
Cytoskeletal Protein [4, 5]: 0.02%
Membrane [4, 5]: 1.44%
Micrococcal Nuclease [4, 5]: 0.03%
Nuclear Soluble [4, 5]: 0.14%
Supernatant (Wash Out) [4, 5]: 87.21%
Total Cellular Uptake [4, 5]: 3.78%
Cells Left Over [4, 6]: 0.06%
Cytoplasmic [4, 6]: 1.47%
Cytoskeletal Protein [4, 6]: 0.03%
Membrane [4, 6]: 3.23%
Micrococcal Nuclease [4, 6]: 0.09%
Nuclear Soluble [4, 6]: 0.11%
Supernatant (Wash Out) [4, 6]: 86.85%
Total Cellular Uptake [4, 6]: 4.99%
Cells Left Over [4, 7]: 0.07%
Cytoplasmic [4, 7]: 3.09%
Cytoskeletal Protein [4, 7]: 0.15%
Membrane [4, 7]: 9.00%
Micrococcal Nuclease [4, 7]: 0.14%
Nuclear Soluble [4, 7]: 1.01%
Supernatant (Wash Out) [4, 7]: 82.42%
Total Cellular Uptake [4, 7]: 13.44%
Cells Left Over ([4]; no blocking agent): 0.45%
Cytoplasmic ([4]; no blocking agent): 2.50%
Cytoskeletal Protein ([4]; no blocking agent): 0.28%
Membrane ([4]; no blocking agent): 20.70%
Micrococcal Nuclease ([4]; no blocking agent): 0.59%
Nuclear Soluble ([4]; no blocking agent): 2.17%
Supernatant (Wash Out) ([4]; no blocking agent): 73.31%
Total Cellular Uptake ([4]; no blocking agent): 26.69%

C[C@]1(c2nc3c(C(N)=O)cccc3[nH]2)CCCN1 [veliparib]
dissociation rate constant (kd) [2]: 0.00408 s⁻¹
